# Source: patent US20130149362A1, “TREATMENT PRODUCT AND METHOD” (priority 2007, published 2013)
# Test: penetration of retinal into the skin (topical application)
# Conditions: retinal by itself
compound,measurement,value
CC1=C(/C=C/C(C)=C/C=C/C(C)=C/C=O)C(C)(C)CCC1 [Retinal],penetration rate,about 2%
